Values joined by “and” are separate entries in the source; they are usually repeats but may differ in a detail not shown here. Equal values may be shown once.
Biological target: Histamine H4 receptor (Homo sapiens, UniProt Q9H3N8)
Sequence (Q9H3N8 whole entry): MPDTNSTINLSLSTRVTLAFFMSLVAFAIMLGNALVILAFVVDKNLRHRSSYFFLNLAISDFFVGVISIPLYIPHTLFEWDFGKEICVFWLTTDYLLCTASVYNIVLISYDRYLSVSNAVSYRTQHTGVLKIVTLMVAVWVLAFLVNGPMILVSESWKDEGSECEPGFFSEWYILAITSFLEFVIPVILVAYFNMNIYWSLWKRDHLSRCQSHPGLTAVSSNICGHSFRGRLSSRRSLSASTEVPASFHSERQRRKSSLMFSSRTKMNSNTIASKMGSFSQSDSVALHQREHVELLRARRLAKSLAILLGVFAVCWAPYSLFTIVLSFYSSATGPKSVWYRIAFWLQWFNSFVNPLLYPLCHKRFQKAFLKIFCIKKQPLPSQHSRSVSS

C[C@@H](N)Cc1c[nH]cn1
Ki: 348 nM and 232 nM
